Source: PubChem BioAssay (NCI)
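Cultured in 96-well plates, cells were exposed to test compound for 48 hours across five concentrations. GI50: concentration for 50% inhibition of growth. TGI is the concentration that stops growth completely.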

Tests used:
Assay in all cases: NCI anticancer screen, dose series, 48 h
786-0 renal = tested on: 786-0 renal
A498 renal = tested on: A498 renal
A549 NSCLC = tested on: A549 NSCLC
ACHN renal = tested on: ACHN renal
BT-549 breast = tested on: BT-549 breast
CAKI-1 renal = tested on: CAKI-1 renal
CCRF-CEM leukemia = tested on: CCRF-CEM leukemia
COLO 205 colon = tested on: COLO 205 colon
DU-145 prostate = tested on: DU-145 prostate
EKVX NSCLC = tested on: EKVX NSCLC
HCC-2998 colon = tested on: HCC-2998 colon
HCT-116 colon = tested on: HCT-116 colon
HCT-15 colon = tested on: HCT-15 colon
HL-60(TB) leukemia = tested on: HL-60(TB) leukemia
HOP-62 NSCLC = tested on: HOP-62 NSCLC
HOP-92 NSCLC = tested on: HOP-92 NSCLC
HS 578T breast = tested on: HS 578T breast
HT29 colon = tested on: HT29 colon
IGROV1 ovarian = tested on: IGROV1 ovarian
K-562 leukemia = tested on: K-562 leukemia
KM12 colon = tested on: KM12 colon
LOX IMVI melanoma = tested on: LOX IMVI melanoma
M14 melanoma = tested on: M14 melanoma
MALME-3M melanoma = tested on: MALME-3M melanoma
MCF7 breast = tested on: MCF7 breast
MDA-MB-231 breast = tested on: MDA-MB-231 breast
MDA-MB-435 = tested on: MDA-MB-435
MOLT-4 leukemia = tested on: MOLT-4 leukemia
NCI-H226 lung = tested on: NCI-H226 lung
NCI-H23 lung = tested on: NCI-H23 lung
NCI-H460 lung = tested on: NCI-H460 lung
NCI-H522 lung = tested on: NCI-H522 lung
NCI/ADR-RES ovarian = tested on: NCI/ADR-RES ovarian
OVCAR-3 ovarian = tested on: OVCAR-3 ovarian
OVCAR-4 ovarian = tested on: OVCAR-4 ovarian
OVCAR-5 ovarian = tested on: OVCAR-5 ovarian
OVCAR-8 ovarian = tested on: OVCAR-8 ovarian
PC-3 prostate = tested on: PC-3 prostate
RPMI-8226 leukemia = tested on: RPMI-8226 leukemia
RXF 393 renal = tested on: RXF 393 renal
SF-268 CNS = tested on: SF-268 CNS
SF-295 CNS = tested on: SF-295 CNS
SF-539 CNS = tested on: SF-539 CNS
SK-MEL-2 melanoma = tested on: SK-MEL-2 melanoma
SK-MEL-28 melanoma = tested on: SK-MEL-28 melanoma
SK-MEL-5 melanoma = tested on: SK-MEL-5 melanoma
SK-OV-3 ovarian = tested on: SK-OV-3 ovarian
SN12C renal = tested on: SN12C renal
SNB-19 CNS = tested on: SNB-19 CNS
SNB-75 CNS = tested on: SNB-75 CNS
SR leukemia = tested on: SR leukemia
SW-620 colon = tested on: SW-620 colon
T-47D breast = tested on: T-47D breast
TK-10 renal = tested on: TK-10 renal
U251 CNS = tested on: U251 CNS
UACC-257 melanoma = tested on: UACC-257 melanoma
UACC-62 melanoma = tested on: UACC-62 melanoma
UO-31 renal = tested on: UO-31 renal

## C=CCC1(O)c2ccccc2C(=O)c2c(NCCN(CC(=O)OCC)CC(=O)OCC)cccc21 (stereo unspecified)
786-0 renal
  GI50: > 100 µM
  TGI: > 100 µM
A498 renal
  GI50: > 100 µM
  TGI: > 100 µM
A549 NSCLC
  GI50: > 100 µM
  TGI: > 100 µM
ACHN renal
  GI50: > 100 µM
  TGI: > 100 µM
BT-549 breast
  GI50: > 100 µM
  TGI: > 100 µM
CAKI-1 renal
  GI50: > 100 µM
  TGI: > 100 µM
CCRF-CEM leukemia
  GI50: > 100 µM
  TGI: > 100 µM
COLO 205 colon
  GI50: > 100 µM
  TGI: > 100 µM
DU-145 prostate
  GI50: > 100 µM
  TGI: > 100 µM
EKVX NSCLC
  GI50: > 100 µM
  TGI: > 100 µM
HCC-2998 colon
  GI50: > 100 µM
  TGI: > 100 µM
HCT-116 colon
  GI50: > 100 µM
  TGI: > 100 µM
HCT-15 colon
  GI50: 69.5 µM
  TGI: > 100 µM
HL-60(TB) leukemia
  GI50: 71.9 µM
  TGI: > 100 µM
HOP-62 NSCLC
  GI50: > 100 µM
  TGI: > 100 µM
HOP-92 NSCLC
  GI50: > 100 µM
  TGI: > 100 µM
HS 578T breast
  GI50: > 100 µM
  TGI: > 100 µM
HT29 colon
  GI50: > 100 µM
  TGI: > 100 µM
IGROV1 ovarian
  GI50: > 100 µM
  TGI: > 100 µM
K-562 leukemia
  GI50: 30.9 µM
  TGI: > 100 µM
KM12 colon
  GI50: > 100 µM
  TGI: > 100 µM
LOX IMVI melanoma
  GI50: > 100 µM
  TGI: > 100 µM
M14 melanoma
  GI50: > 100 µM
  TGI: > 100 µM
MALME-3M melanoma
  GI50: > 100 µM
  TGI: > 100 µM
MCF7 breast
  GI50: > 100 µM
  TGI: > 100 µM
MDA-MB-231 breast
  GI50: > 100 µM
  TGI: > 100 µM
MDA-MB-435
  GI50: > 100 µM
  TGI: > 100 µM
MOLT-4 leukemia
  GI50: 75.6 µM
  TGI: > 100 µM
NCI-H226 lung
  GI50: > 100 µM
  TGI: > 100 µM
NCI-H23 lung
  GI50: > 100 µM
  TGI: > 100 µM
NCI-H460 lung
  GI50: > 100 µM
  TGI: > 100 µM
NCI-H522 lung
  GI50: > 100 µM
  TGI: > 100 µM
NCI/ADR-RES ovarian
  GI50: > 100 µM
  TGI: > 100 µM
OVCAR-3 ovarian
  GI50: > 100 µM
  TGI: > 100 µM
OVCAR-4 ovarian
  GI50: > 100 µM
  TGI: > 100 µM
OVCAR-5 ovarian
  GI50: > 100 µM
  TGI: > 100 µM
OVCAR-8 ovarian
  GI50: > 100 µM
  TGI: > 100 µM
PC-3 prostate
  GI50: 97.1 µM
  TGI: > 100 µM
RPMI-8226 leukemia
  GI50: 98.5 µM
  TGI: > 100 µM
RXF 393 renal
  GI50: > 100 µM
  TGI: > 100 µM
SF-268 CNS
  GI50: > 100 µM
  TGI: > 100 µM
SF-295 CNS
  GI50: > 100 µM
  TGI: > 100 µM
SF-539 CNS
  GI50: > 100 µM
  TGI: > 100 µM
SK-MEL-2 melanoma
  GI50: > 100 µM
  TGI: > 100 µM
SK-MEL-28 melanoma
  GI50: > 100 µM
  TGI: > 100 µM
SK-MEL-5 melanoma
  GI50: > 100 µM
  TGI: > 100 µM
SK-OV-3 ovarian
  GI50: > 100 µM
  TGI: > 100 µM
SN12C renal
  GI50: 57 µM
  TGI: > 100 µM
SNB-19 CNS
  GI50: > 100 µM
  TGI: > 100 µM
SNB-75 CNS
  GI50: > 100 µM
  TGI: > 100 µM
SR leukemia
  GI50: 46.5 µM
  TGI: > 100 µM
SW-620 colon
  GI50: > 100 µM
  TGI: > 100 µM
T-47D breast
  GI50: 80.6 µM
  TGI: > 100 µM
TK-10 renal
  GI50: > 100 µM
  TGI: > 100 µM
U251 CNS
  GI50: > 100 µM
  TGI: > 100 µM
UACC-257 melanoma
  GI50: > 100 µM
  TGI: > 100 µM
UACC-62 melanoma
  GI50: > 100 µM
  TGI: > 100 µM
UO-31 renal
  GI50: > 100 µM
  TGI: > 100 µM
